Measured values reported in patent EP0694535A1, “Non-peptidyl tachykinin receptor antagonists” (ELI LILLY AND COMPANY, priority 1994, dated 1996).

Experiments:
human NK-2 receptor = molecular target: T1, human NK-2 receptor (Homo sapiens, UniProt P21452); assay: NK-2 Receptor Binding Assay (CHO-hNK-2R membranes, iodohistidyl-neurokinin A); conditions: for inhibition at 10 µM: inhibition of neurokinin A binding at ten micromolar, read-out: Percent Inhibition @ 10 μM; for IC50: values in parentheses, amount necessary to inhibit fifty percent of the binding of neurokinin A
T1 construct: expressed in transfected cells; host or cells: CHO-hNK-2R cells (CHO-derived), membrane preparation
T1 sequence (P21452 1-398): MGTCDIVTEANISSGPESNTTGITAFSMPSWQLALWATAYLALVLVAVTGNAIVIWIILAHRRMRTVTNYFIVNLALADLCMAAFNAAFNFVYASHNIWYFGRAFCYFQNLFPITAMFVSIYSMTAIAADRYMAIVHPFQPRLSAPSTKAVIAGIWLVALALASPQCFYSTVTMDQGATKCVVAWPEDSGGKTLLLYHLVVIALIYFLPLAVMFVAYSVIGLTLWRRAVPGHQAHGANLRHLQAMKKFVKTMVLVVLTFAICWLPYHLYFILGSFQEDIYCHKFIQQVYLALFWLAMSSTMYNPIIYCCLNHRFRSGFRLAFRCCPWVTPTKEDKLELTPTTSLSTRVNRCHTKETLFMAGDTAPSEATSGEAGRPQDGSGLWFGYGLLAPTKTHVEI
Protocol: The CHO-hNK-2R cells, a CHO-derived cell line transformed with the human NK-2 receptor, expressing about 400,000 such receptors per cell, were grown in 75 cm flasks or roller bottles in minimal essential medium (alpha modification) with 10% fetal bovine serum. The gene sequence of the human NK-2 receptor is given in N.P. Gerard, et al., Journal of Biological Chemistry, 265:20455-20462 (1990).
For preparation of membranes, 30 confluent roller bottle cultures were dissociated by washing each roller bottle with 10 ml of Dulbecco's phosphate buffered saline (PBS) without calcium and magnesium, followed by addition of 10 ml of enzyme-free cell dissociation solution (PBS-based, from Specialty Media, Inc.). After an additional 15 minutes, the dissociated cells were pooled and centrifuged at 1,000 RPM for 10 minutes in a clinical centrifuge. Membranes were prepared by homogenization of the cell pellets in 300 ml 50 mM Tris buffer, pH 7.4 with a Tekmar® homogenizer for 10-15 seconds, followed by centrifugation at 12,000 RPM (20,000 x g) for 30 minutes using a Beckman JA-14® rotor. The pellets were washed once using the above procedure. and the final pellets were resuspended in 100-120 ml 50 mM Tris buffer, pH 7.4, and 4 ml aliquots stored frozen at -70 °C. The protein concentration of this preparation was 2 mg/ml.
For the receptor binding assay, one 4-ml aliquot of the CHO-hNK-2R membrane preparation was suspended in 40 ml of assay buffer containing 50 mM Tris, pH 7.4, 3 mM manganese chloride, 0.02% bovine serum albumin (BSA) and 4 µg/ml chymostatin. A 200 µl volume of the homogenate (40 µg protein) was used per sample. The radioactive ligand was [[…]]iodohistidyl-neurokinin A (New England Nuclear, NEX-252), 2200 Ci/mmol. The ligand was prepared in assay buffer at 20 nCi per 100 µl; the final concentration in the assay was 20 pM. Non-specific binding was determined using 1 µM eledoisin. Ten concentrations of eledoisin from 0.1 to 1000 nM were used for a standard concentration-response curve.
All samples and standards were added to the incubation in 10 µl dimethylsulfoxide (DMSO) for screening (single dose) or in 5 µl DMSO for IC₅₀ determinations. The order of additions for incubation was 190 or 195 µl assay buffer, 200 µl homogenate, 10 or 5 µl sample in DMSO, 100 µl radioactive ligand. The samples were incubated 1 hr at room temperature and then filtered on a cell harvester through filters which had been presoaked for two hours in 50 mM Tris buffer, pH 7.7, containing 0.5% BSA. The filter was washed 3 times with approximately 3 ml of cold 50 mM Tris buffer, pH 7.7. The filter circles were then punched into 12 x 75 mm polystyrene tubes and counted in a gamma counter.
Table II, infra, provides a representative sample of the effectiveness as NK-2 receptor antagonists of many of the compounds of Formula I. The first column provides the Example number of the compound tested. The second column provides either the percent inhibition of neurokinin A binding when the compound is present in a ten micromolar concentration or the amount of compound (in micromolar amounts) necessary to inhibit fifty percent of the binding of neurokinin A. Those values which represent IC₅₀ values are designated by parentheses.

NK-1 receptor = molecular target: T2, NK-1 receptor (Homo sapiens, UniProt P25103); assay: NK-1 Receptor Binding Assay (competition with labeled substance P on IM9 cells); conditions: for IC50: concentration which inhibits fifty percent of the binding of substance P, 20 pM labeled substance P, 45 minutes at 4°C
T2 construct: an aliquot of IM9 cells; endogenous in cells; host or cells: IM9 cells (whole cells)
Outline: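 IM9 cells (1 x 10⁶/tube in serum-supplemented RPMI) were incubated for 45 min at 4°C with 20 pM […] substance P plus rising competitor concentrations. Binding was stopped by filtration on PEI-soaked glass fiber filters. Nonspecific binding was defined with 20 nM unlabeled ligand.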

T2 sequence (P25103 whole entry): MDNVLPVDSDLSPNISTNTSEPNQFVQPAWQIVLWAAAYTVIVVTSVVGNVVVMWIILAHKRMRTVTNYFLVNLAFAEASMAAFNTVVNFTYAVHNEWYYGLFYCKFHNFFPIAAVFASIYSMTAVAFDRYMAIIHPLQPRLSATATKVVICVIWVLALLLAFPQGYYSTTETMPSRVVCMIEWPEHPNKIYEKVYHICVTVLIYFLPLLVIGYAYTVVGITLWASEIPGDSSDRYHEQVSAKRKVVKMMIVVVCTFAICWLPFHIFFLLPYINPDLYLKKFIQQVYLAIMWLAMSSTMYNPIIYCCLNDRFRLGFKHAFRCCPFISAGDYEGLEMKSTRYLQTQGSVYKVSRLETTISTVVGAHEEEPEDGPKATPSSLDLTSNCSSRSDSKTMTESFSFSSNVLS

| SMILES | inhibition at 10 µM (human NK-2 receptor) [%] | inhibition at 10 µM (NK-1 receptor; at 10μM, inhibition of substance P binding to the NK-1 receptor, read-out: Percent Inhibition) [%] | IC50 (NK-1 receptor) [nM] | IC50 (human NK-2 receptor) [nM] |
| --- | --- | --- | --- | --- |
| Cc1cccc(-c2nc3ccccc3n2Cc2ccc(Cl)c(Cl)c2)c1 [Example 64, 1-(3,4-Dichlorobenzyl)-2-(3-methylphenyl)benzimidazole] | 58.7 | 41 |  |  |
| COc1cc(-c2nc3ccc(OCCN4CCOCC4)cc3n2Cc2ccccc2)cc(OC)c1OC [Example 70, 1-benzyl-2-(3,4,5-trimethoxyphenyl)-6-[2-(4-morpholinyl)ethoxy]benzimidazole] | 63.7 |  | 85 |  |
| COc1cc(-c2nc3ccc(OCCCCl)cc3n2Cc2ccccc2)cc(OC)c1OC [Example 75, 1-benzyl-2-(3,4,5-trimethoxyphenyl)-6-(3-chloropropoxy)benzimidazole] | 86.3 |  | 814 |  |
| COc1cc(-c2nc3ccc(OCCCl)cc3n2Cc2ccccc2)cc(OC)c1OC [Example 76, 1-benzyl-2-(3,4,5-trimethoxyphenyl)-6-(2-chloroethoxy)benzimidazole] |  |  | 329 | 7480 |
| COc1cc(-c2nc3ccc(OCCN4CCC(N5CCCCC5)CC4)cc3n2Cc2ccccc2)cc(OC)c1OC [Example 77, 1-benzyl-2-(3,4,5-trimethoxyphenyl)-6-[2-[4-(piperidin-1-yl)piperdin-1-yl]ethoxy]benzimidazole] |  |  | 123 | 6250 |
| Cc1cccc(-c2nc3ccc(O)cc3n2Cc2ccccc2)c1 [Example 84, 1-benzyl-2-(3-methylphenyl)-6-hydroxybenzimidazole] | 37.8 |  | 590 |  |
| Cc1cccc(-c2nc3ccc(OCCN4CCCCC4)cc3n2Cc2ccccc2)c1 [Example 85, 1-benzyl-2-(3-methylphenyl)-6-[2-(1-piperidinyl)ethoxy]benzimidazole] | 73.1 |  | 753 |  |

The next lines start with the values.

| inhibition at 10 µM (human NK-2 receptor) [%] | inhibition at 10 µM (NK-1 receptor; at 10μM, inhibition of substance P binding to the NK-1 receptor, read-out: Percent Inhibition) [%] | IC50 (NK-1 receptor) [nM] | IC50 (human NK-2 receptor) [nM] | SMILES |
| --- | --- | --- | --- | --- |
| 70.1 |  | 60 |  | COc1cc(-c2nc3ccc(OCCN4CCCCC4)cc3n2Cc2ccccc2)cc(OC)c1OC [Example 71, 1-benzyl-2-(3,4,5-trimethoxyphenyl)-6-[2-(1-piperidinyl)ethoxy]benzimidazole] |
| 53.8 |  | 74 |  | COc1cc(-c2nc3ccc(OCCN4CCCC4)cc3n2Cc2ccccc2)cc(OC)c1OC [Example 72, 1-benzyl-2-(3,4,5-trimethoxyphenyl)-6-[2-(1-pyrroldinyl)ethoxy]benzimidazole] |
| 83.5 |  | 52 |  | COc1cc(-c2nc3ccc(OCCN4CCCCCC4)cc3n2Cc2ccccc2)cc(OC)c1OC [Example 73, 1-benzyl-2-(3,4,5-trimethoxyphenyl)-6-[2-(1-hexamethyleneiminyl)ethoxy]benzimidazole] |
| 78 |  | 85 |  | COc1cc(-c2nc3ccc(OCCCN4CCCCC4)cc3n2Cc2ccccc2)cc(OC)c1OC [Example 74, 1-benzyl-2-(3,4,5-trimethoxyphenyl)-6-[3-(1-piperidinyl)propoxy]benzimidazole] |
